Laboratory results from US5869500A, “Pyridone compounds useful in treating Alzheimer's disease” (Hoffmann-La Roche Inc., priority 1996, dated 1999).

Assays:
[1] = test system: Aβ production in HEK cells over-expressing mutated β-APP (SFAD); assay: Aβ production inhibition, sandwich-ELISA in HEK cells, over-expressed mutated β-APP (SE-SFAD); format: cell-based, human; conditions: for IC50: based on the respective plateau of maximum inhibition; for Emax: read-out: SE-SFAD max. inhibition %
Experimental: (§1) The effect of test substances on the inhibition of Aβ-amyloid production can be measured in the supernatant of cell cultures of β-APP expressed cells using ELISA tests or other quantitative determination methods for β-APP degradation products. Typically, 8×10^5 cells (e.g. HEK cells, which express recombinant human β-APP variants) are plated out in each well of a culture dish having 24 wells in growth media such as e.g. OPTIMEM (Gibco) and the test compound is then added. After an incubation period of 24 to 48 hours at 37° C. in a 10% CO2 atmosphere the supernatant is removed from the cell cultures and the β-APP degradation products (e.g. Aβ or β-[…]) are determined with the aid of ELISA (or sandwich ELISA) analysis or by means of quantitative immunoprecipitation (after metabolic radiolabelling of the cell proteins). Typically, 300 μl of the cell supernatant are tested according to the state of the art for ELISA tests in culture dishes having 96 wells. In the case of sandwich ELISA for Aβ, the binding antibody can be directed against the first 16 amino acids of Aβ-peptide (e.g. 6E10 Senetek, Maryland Heights, Mo.) and the detection antibody can be directed against amino acids 17-40 or 17-42 of Aβ and carries a detection system such as e.g. peroxidase. A simple ELISA test with an antibody, e.g. 22C11 (Boehringer Mannheim), can be used as the test for […]; the second antibody can be an anti-(mouse) Ig having a detection system, such as e.g. peroxidase. The peroxidase reaction can be carried out e.g. using a TMB substrate (BioRAD) and the measurements can be carried out at 650 nm using an ELISA reading apparatus. […] SE-SFAD signifies the Aβ production inhibition measured using sandwich-ELISA in HEK cells, SFAD signifies over-expressed mutated β-APP, and SE-WT signifies the Aβ production inhibition measured using sandwich-ELISA in HEK cells which over-express Wild type β-APP. The IC50 values are based on the respective plateau of maximum inhibition.

[2] = test system: Aβ production in HEK cells over-expressing Wild type β-APP; assay: Aβ production inhibition, sandwich-ELISA in HEK cells which over-express Wild type β-APP (SE-WT); format: cell-based, human; conditions: Homo sapiens; for IC50: HEK293, based on the respective plateau of maximum inhibition; for Emax: HEK293, maximum inhibition plateau, read-out: SE-WT max. inhibition %
Experimental: as §1

[3] = Homo sapiens, HEK293, HEK cells
[4] = Homo sapiens, HEK293, HEK cells, maximum inhibition plateau

## COC1CCN(C(=O)c2cc(-c3ccccc3)c(=O)n3ccc4ccc(Cl)cc4c23)C1 (stereo not drawn) [Compound 41, 10-Chloro-1-(3-methoxy-pyrrolidine-1-carbonyl)-3-phenyl-pyrido [2,1-a]isoquinolin-4-one]
[1]; [3]
  IC50: 6 µM
[1]; [4]
  Emax: 100%
[2]
  IC50: 3.5 µM
  Emax: 75%

## COCC1CC(OC)CN1C(=O)c1cc(-c2ccccc2)c(=O)n2ccc3ccsc3c12 (stereo not drawn) [Compound 8, 10-(4-Methoxy-2-methoxymethyl-pyrrolidine-1-carbonyl)-8-phenylthieno[2,3-a]quinolizin-7-one]
[1]; [3]
  IC50: 1 µM
[1]; [4]
  Emax: 35%
[2]
  IC50: 12 µM
  Emax: 25%

## O=C1CC[C@@H](COC(=O)c2cc(-c3ccccc3)c(=O)n3ccc4ccsc4c23)N1 [Compound 4, 5-Oxo-pyrrolidin-2-(S)-yl-methyl 7-oxo-8-phenyl-7H-thieno[2,3-a]-quinolizine-10-carboxylate]
[1]; [3]
  IC50: 10 µM
[1]; [4]
  Emax: 25%
[2]
  IC50: 5 µM
  Emax: 25%

## COC1CCCN(C(=O)c2cc(-c3ccccc3)c(=O)n3ccc4ccsc4c23)C1 (stereo not drawn) [Compound 14, 10-(3-Methoxy-piperidine-1-carbonyl)-8-phenyl-thieno[2,3-a]-quinolizine-7-on]
[1]; [3]
  IC50: 2.3 µM
[1]; [4]
  Emax: 50%
[2]
  IC50: 8 µM
  Emax: 70%

## COC1CN(C(=O)c2cc(-c3ccccc3)c(=O)n3ccc4ccsc4c23)C1 [Compound 39, 10-(3-Methoxy-azetidine-1-carbonyl)-8-phenyl-thieno[2,3-a]quinolizin-7-one]
[1]; [3]
  IC50: 7 µM
[1]; [4]
  Emax: 30%
[2]
  IC50: 6 µM
  Emax: 50%

## COC(=O)c1cc(-c2ccc(C(C)(C)C)cc2)c(=O)n2ccc3ccsc3c12 [Compound 106, Methyl 8-(4-tert-butyl-phenyl)-7-oxo-7H-thieno[2,3-a]quinolizine-10-carboxylate]
[1]; [3]
  IC50: 2.3 µM
[1]; [4]
  Emax: 85%
[2]
  IC50: 0.8 µM
  Emax: 95%

## CCCOC1CN(C(=O)c2cc(-c3ccccc3)c(=O)n3ccc4ccsc4c23)C1 [Compound 1, 8-Phenyl-10-(3-propoxy-azetidin-1-carbonyl)-thieno[2,3-a]quinolizin-7-one]
[1]; [3]
  IC50: 2 µM
[1]; [4]
  Emax: 65%
[2]
  IC50: 4 µM
  Emax: 75%

## COC[C@@H]1CCCN1C(=O)c1cc(-c2ccccc2)c(=O)n2ccc3ccsc3c12 [Compound 34, 10-(2-(S)-Methoxymethyl-pyrrolidine-1-carbonyl)-8-phenyl-thieno-[2,3-a]-quinolizin-7-one]
[1]; [3]
  IC50: 9 µM
[1]; [4]
  Emax: 50%
[2]
  IC50: 4 µM
  Emax: 60%

## O=C(OCc1cccs1)c1cc(-c2ccccc2)c(=O)n2ccc3ccsc3c12 [Compound 55, Thiophen-2-yl-methyl 7-oxo-8-phenyl-7H-thieno[2,3-a]quinolizine-10-carboxylate]
[1]; [3]
  IC50: 4 µM
[1]; [4]
  Emax: 50%
[2]
  IC50: 5 µM
  Emax: 60%

## COC1CCN(C(=O)c2cc(-c3ccccc3)c(=O)n3ccc4ccsc4c23)CC1 [Compound 13, 10-(4-Methoxy-piperidine-1-carbonyl)-8-phenyl-thieno[2,3-a]-quinolizin-7-one]
[1]; [3]
  IC50: 5 µM
[1]; [4]
  Emax: 30%
[2]
  IC50: 4 µM
  Emax: 80%

## O=C(OCCN1CCCC1=O)c1cc(-c2ccccc2)c(=O)n2ccc3ccsc3c12 [Compound 29, 2-(2-Oxo-pyrrolidin-1-yl)-ethyl 7-oxo-8-phenyl-7H-thieno[2,3-a]-quinolizine-10-carboxylate]
[1]; [3]
  IC50: 3 µM
[1]; [4]
  Emax: 40%
[2]
  IC50: 4.1 µM
  Emax: 80%

## COC1CN(C(=O)c2cc(-c3ccccc3)c(=O)n3ccc4ccc(Cl)cc4c23)C1 [Compound 40, 10-Chloro-1-(3-methoxy-azetidine-1-carbonyl)-3-phenyl-pyrido-[2,1-a]isoquinolin-4-one]
[1]; [3]
  IC50: 6.8 µM
[1]; [4]
  Emax: 100%
[2]
  IC50: 7 µM
  Emax: 70%

## COC(=O)c1cc(-c2ccccc2OC)c(=O)n2ccc3ccsc3c12 [Compound 129, Methyl 8-(2-methoxy-phenyl)-7-oxo-7H-thieno[2,3-a]quinolizine-10-carboxylate]
[1]; HEK cells
  IC50: 2.8 µM
[1]; HEK cells, maximum inhibition plateau
  SE-SFAD max. inhibition %: 75%
[2]
  IC50: 1.5 µM
  Emax: 85%

## COCCN(C(=O)c1cc(-c2ccc(OCc3ccccc3)cc2)c(=O)n2ccc3cc(Br)sc3c12)c1ccccc1 [Compound 77, 8-(4-Benzyloxy-phenyl)-2-bromo-7-oxo-7H-thieno[2,3-a]quinolizine-10-carboxylic acid (2-methoxy-ethyl)-phenyl-amide]
[1]; [3]
  IC50: 0.2 µM
[1]; [4]
  Emax: 80%
[2]
  IC50: 0.2 µM
  Emax: 100%

## CCOC(=O)CN1CCN(C(=O)c2cc(-c3ccccc3)c(=O)n3ccc4ccsc4c23)CC1 [Compound 16, Ethyl [4-(7-oxo-8-phenyl-7H-thieno[2,3-a]quinolizine-10-carbonyl)-piperazin-1-yl]-acetate methanesulphonate]
[1]; [3]
  IC50: 3 µM
[1]; [4]
  Emax: 30%
[2]
  IC50: 6 µM
  Emax: 70%

## CCN(CCO)C(=O)c1cc(-c2ccccc2)c(=O)n2ccc3ccsc3c12 [Compound 21, 7-Oxo-8-phenyl-7H-thieno[2,3-a]quinolizine-10-carboxylic acid (2-hydroxy-ethyl)-ethyl-amide]
[2]
  IC50: 40 µM
  Emax: 100%

## O=C(c1cc(-c2ccccc2)c(=O)n2ccc3ccsc3c12)N1CCC[C@@H]1CI [Compound 11, 10-(2-(R)-Iodomethyl-pyrrolidine-1-carbonyl)-8-phenyl-thieno[2,3-a]-quinolizin-7-one]
[2]
  IC50: 11 µM
  Emax: 100%

## CCN(CCOC)C(=O)c1cc(-c2ccc(C)cc2)c(=O)n2ccc3ccsc3c12 [Compound 149, 7--Oxo-8-p-tolyl-7H-thieno[2,3-a]quinolizine-10-carboxylic acid ethyl-(2-methoxy-ethyl)-amide]
[1]; [3]
  IC50: 2.4 µM
[1]; [4]
  Emax: 100%

## COCCN(C)C(=O)c1cc(-c2ccccc2)c(=O)n2ccc3ccsc3c12 [Compound 19, 7-Oxo-8-phenyl-7H-thieno[2,3-a]quinolizine-10-carboxylic acid (2-methoxy-ethyl)-methyl-amide]
[2]
  IC50: 20 µM
  Emax: 100%

## COCCN(Cc1ccccc1)C(=O)c1cc(-c2ccccc2OC)c(=O)n2ccc3ccsc3c12 [Compound 120, 8-(2-Methoxy-phenyl)-7-oxo-7H-thieno[2,3-a]quinolizine-10-carboxylic acid benzyl-(2-methoxy-ethyl)-amide]
[1]; [3]
  IC50: 1.8 µM
[1]; [4]
  Emax: 100%

## COCCNC(=O)c1cc(-c2ccc(Oc3ccccc3)cc2)c(=O)n2ccc3ccsc3c12 [Compound 98, 7-Oxo-8-(4-phenoxy-phenyl)-7H-thieno[2,3-a]quinolizine-10-carboxylic acid (2-methoxy-ethyl)-amide]
[1]; [3]
  IC50: 2.4 µM
[1]; [4]
  Emax: 70 to 90%

## CCN(CCOC)C(=O)c1cc(-c2ccc(C(C)(C)C)cc2)c(=O)n2ccc3ccsc3c12 [Compound 107, 8-(4-tert-Butyl-phenyl)-7-oxo-7H-thieno[2,3-a]quinolizine-10-carboxylicacid ethyl-(2-methoxy-ethyl)-amide]
[1]; [3]
  IC50: 3 µM
[1]; [4]
  Emax: 20%

## NC(=O)c1cc(-c2ccccc2)c(=O)n2ccc3ccsc3c12 [Compound 56, 7-Oxo-8-phenyl-7H-thieno[2,3-a]quinolizine-10-carboxylic acid amide]
[1]; [3]
  IC50: 1 µM
[1]; [4]
  Emax: 35%

## CC(=O)OC[C@H]1CCCN1C(=O)c1cc(-c2ccccc2)c(=O)n2ccc3ccsc3c12 [Compound 12, 1-(7-Oxo-8-phenyl-7H-thieno[2,3-a]quinolizine-10-carbonyl)-pyrrolidin-2-(R)-yl-methyl acetate]
[2]
  IC50: 1 µM
  Emax: 50%

## CCOC(=O)c1cc(-c2ccc(C)cc2)c(=O)n2ccc3ccsc3c12 [Compound 151, Ethyl 7-oxo-8-p-tolyl-7H-thieno[2,3-a]quinolizine-10-carboxylate]
[1]; [3]
  IC50: 0.8 µM
[1]; [4]
  Emax: 100%

## O=C1CN(C(=O)c2cc(-c3ccccc3)c(=O)n3ccc4ccsc4c23)C1 [Compound 7, 10-(3-Oxo-azetidin-1-carbonyl)-8-phenyl-thieno[2,3-a]quinolizin-7-one]
[1]; [3]
  IC50: 50 µM
[1]; [4]
  Emax: 100%

## COc1ccccc1-c1cc(C(=O)NCc2ccccc2)c2c3sccc3ccn2c1=O [Compound 135, 8-(2-Methoxy-phenyl)-7-oxo-7H-thieno[2,3-a]quinolizine-10-carboxylic acid benzyl-amide]
[1]; [3]
  IC50: 3 µM
[1]; [4]
  Emax: 100%
